Measurements as given in patent US10703761B2, “Bile acid receptor modulators and methods of use thereof” (City of Hope, priority 2016, dated 2020).
Entries after “also recorded” stand apart in the source; their conditions may differ.

Columns and labels:
TGR5 = target: T1, TGR5 (Homo sapiens, UniProt Q8TDU6); assay: TGR5 luciferase reporter (pCRE-luc) / cAMP assay in HEK293 cells overexpressing TGR5; assay type: cell-based
T1 construct: expressed in transfected cells
T1 sequence (Q8TDU6 1-330): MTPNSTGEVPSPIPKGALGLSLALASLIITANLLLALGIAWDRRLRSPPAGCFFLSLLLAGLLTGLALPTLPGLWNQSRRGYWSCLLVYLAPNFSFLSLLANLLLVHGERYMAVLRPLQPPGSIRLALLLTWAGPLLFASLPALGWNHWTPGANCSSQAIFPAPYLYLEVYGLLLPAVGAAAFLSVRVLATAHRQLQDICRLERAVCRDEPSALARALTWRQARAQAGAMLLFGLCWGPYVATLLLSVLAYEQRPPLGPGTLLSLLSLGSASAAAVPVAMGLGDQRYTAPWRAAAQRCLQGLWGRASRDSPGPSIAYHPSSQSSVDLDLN
Protocol: FIG. 1(A-C): FIG. 1(A) Chemical structure of berberine. FIG. 1(B) HEK293 cells lacking or stably-overexpressing TGR5 were treated with increasing doses of berberine for 16 h. TGR5-reporting activity was evaluated by luciferase assay (n=8). FIG. 1(C) The ability of berberine to activate TGR5 and FXR was evaluated in comparison to the synthetic FXR agonist GW4064. Ligands were used at a concentration of […] (n=4). Statistical analysis was performed using paired t-test. **p<0.05, ***p<0.001.
FIG. 2(A) HEK293 cells lacking or overexpressing TGR5 were treated with increasing doses of berberine for 16 hours and TGR5-reporting activity was evaluated using luciferase assays. FIG. 2(B) Ability of berberine to activate metabolic nuclear receptors was evaluated in comparison to native ligands. All ligands were used at a 10 μM concentration.
To potentially identify selective TGR5 modulators via a novel strategy, we synthesized and screened a focused chemical compounds library to search for derivatives that have higher affinity and/or higher selectivity to effectively modulate TGR5 activity in vivo. A focused small chemical compound library was evaluated in in vitro TGR5 assays to search for berberine-derived agonists that have higher affinity, potency, and/or higher selectivity for TGR5. The receptor binding assay was performed by measuring the level of cyclic AMP (cAMP) using TR-FRET (time-resolved fluorescence resonance energy transfer) assay. The level of intracellular cAMP was determined with Lance kit (PerkinElmer). Lithocholic acid was used as control ligand. Z′ factor was used to validate assays. Non-linear regression curves, without constraints, was performed by using four parameter equation and GraphPad Prism Software (GraphPad Inc.) to obtain the EC50 values. All drugs tested positive with TR-FRET for TGR5 binding affinities were evaluated in cell-based assays, using HEK293 cells stably over expressing human TGR5 transfected with the cAMP-sensitive reporter plasmid pCRE-Luc. Compounds were initially tested at doses of […] and the relative fold activation on TGR5 was determined. […]

DIO mice = assay: Hepatic lipid accumulation, Oil Red O staining; assay type: in vivo, mouse
Protocol: FIG. 9(A). lean mice. FIG. 9(B). DIO mice, FIG. 9(C). berberine, and FIG. 9(D). DY319. Intracellular lipids were stained with Oil Red O and visualized by phase-contrast microscopy (×200 magnification).
Cells on day 7 were washed twice with PBS, fixed with 10% neutral buffered formalin for 1 h at room temperature, washed with PBS and then dried completely. The fixed cells were stained with Oil Red O in an isopropanol/distilled water (6:4) solution for 30 min at room temperature and then washed twice with distilled water. The stained lipid droplets were observed, and microscopic images were obtained from randomly selected fields under a phase contrast microscope (AX70; Olympus, Tokyo, Japan) equipped with a digital camera and processed using ImagePro Plus software (Media Cybernetics, Silver Spring, Md., USA).

NCI-H716 cells = conditions: cited from earlier work
db/db mice = conditions: mouse, in vivo; cited from earlier work
[1] = in vivo; cited from earlier work

Compound: COc1ccc2cc3[n+](cc2c1OC)CCc1cc2c(cc1-3)OCO2 [berberine]
- TGR5-reporting effect in cells lacking TGR5 (TGR5; HEK293 cells lacking TGR5): lost
- TGR5 activation (TGR5; HEK293 cells overexpressing TGR5, 16 h): is a ligand for the G protein-coupled receptor TGR5; also recorded: can activate the bile acid receptor TGR5
- EC50 (TGR5; unpublished data, read-out: TGR5 agonist EC50): 460 nM
- Hepatic lipid accumulation (DIO mice): prevent hepatic lipid accumulation
- Prohormone convertase 3 and proglucagon mRNA expression (NCI-H716 cells): promoted both prohormone convertase 3 and proglucagon mRNA expression
- GLP-1 release (NCI-H716 cells; in vitro): modulated GLP-1 release; also recorded: concentration-dependently stimulated GLP-1 release
- Metabolic properties in db/db mice (db/db mice): insulin sensitizing as well as weight- and lipid-lowering properties
- Plasma concentration / gut restriction [1]: keeps low concentration in plasma
